Measured values published in US20250368637A1, “SOLID-STATE FORMS OF N-(2-(4-CYANOTHIAZOLIDIN-3-YL)-2-OXOETHYL)-6-MORPHOLINOQUINOLINE-4-CARBOXAMIDE” (AstraZeneca AB, priority 2022, published 2025).

Tests used:
hFAP (M39-A757) = hFAP (M39-A757) (Homo sapiens (Human), UniProt Q12884); assay: hFAP binding assay (surface plasmon resonance); details: SPR, 20° C.
Experimental: The hFAP protein used in the Examples was either commercially sourced or produced in insect cells as recombinant hFAP (Gp67-6HN-TEV-FAP (M39-A757), MW 89086.7 Da, or cd33-FAP (27-757)-6His, MW85926 Da).
Immobilization of hFAP (M39-A757) on a CMD200M sensor chip (Xantec) was performed using standard amine coupling procedure in immobilization buffer (10 mM HEPES, 150 mM NaCl, 0.05% Tween20, pH 7.4). The surface was washed with 10 mM NaOH, IM NaCl before being activated with EDC/NHS (GE Healthcare), followed by immobilization of hFAP (in 10 mM Acetate pH 5.0). Finally, the surface was deactivated by ethanolamine. Immobilization levels of hFAP were around 4000-6000 RU. The reference spot was treated as described, omitting the injection of hFAP. Compound concentration series were injected over the immobilized protein in increasing concentrations (2-500 nM) using single cycle kinetics in running buffer (20 mM TRIS, 150 mM NaCl, 0.05% Tween20, 1% DMSO, pH 7.4). Interaction models were fitted globally to the experimental traces, enabling determination of kon, koff and Kd.

FAP Cyno Plasma = FAP Cyno Plasma (Macaca fascicularis, UniProt A0A2K5VGH4); assay: FAP plasma inhibition assay, cynomolgus plasma; format: biochemical; details: cynomolgus plasma dilution 1:40
Experimental: Plasma (anticoagulant K2EDTA) was used as the enzyme source: Human plasma (Pooled from AZ Biobank), Mouse plasma (AZ AST Biobank), and Cynomolgus plasma (BioIVT, #NHP00PLK2FNN, lot CYN222895). 384-Well black fluotrack PS plates (Greiner 781076) were used. 20 μL diluted plasma (Cynomolgus and Human plasma dilution 1:40, Mouse plasma dilution 1:67) in buffer (PBS, 0.1% BSA) was added to 0.6 μL compounds (in DMSO). Compounds were tested using 10 CR, 3-fold dilution series from 500 nM FAC. Two replicates for each assay point were run on the same plate. A fluorescence blank read was taken before substrate addition. […] Plates were incubated for 40 min at rt in the dark. […] IC50 values were determined by plotting % inhibition versus log compound concentration.

Chain of hFAP (M39-A757) (Q12884 39-757): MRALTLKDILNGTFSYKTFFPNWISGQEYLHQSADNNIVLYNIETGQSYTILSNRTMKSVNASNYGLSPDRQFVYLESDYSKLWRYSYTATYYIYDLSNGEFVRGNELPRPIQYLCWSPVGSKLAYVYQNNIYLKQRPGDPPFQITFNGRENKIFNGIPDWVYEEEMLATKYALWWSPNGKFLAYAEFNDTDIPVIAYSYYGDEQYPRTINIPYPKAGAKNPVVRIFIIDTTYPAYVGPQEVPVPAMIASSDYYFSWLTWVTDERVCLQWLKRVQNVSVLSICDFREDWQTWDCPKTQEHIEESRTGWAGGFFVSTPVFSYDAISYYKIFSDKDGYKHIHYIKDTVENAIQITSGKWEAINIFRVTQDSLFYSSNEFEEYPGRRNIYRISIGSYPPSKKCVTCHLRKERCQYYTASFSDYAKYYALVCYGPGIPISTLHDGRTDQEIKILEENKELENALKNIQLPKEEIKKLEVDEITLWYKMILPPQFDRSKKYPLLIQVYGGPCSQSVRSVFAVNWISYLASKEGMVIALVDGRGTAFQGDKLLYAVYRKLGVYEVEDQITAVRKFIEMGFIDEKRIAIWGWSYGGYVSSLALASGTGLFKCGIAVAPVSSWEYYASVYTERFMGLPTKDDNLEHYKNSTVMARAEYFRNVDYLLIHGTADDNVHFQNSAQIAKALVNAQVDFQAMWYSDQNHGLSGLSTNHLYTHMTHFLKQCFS
Chain of FAP Cyno Plasma (A0A2K5VGH4 1-745): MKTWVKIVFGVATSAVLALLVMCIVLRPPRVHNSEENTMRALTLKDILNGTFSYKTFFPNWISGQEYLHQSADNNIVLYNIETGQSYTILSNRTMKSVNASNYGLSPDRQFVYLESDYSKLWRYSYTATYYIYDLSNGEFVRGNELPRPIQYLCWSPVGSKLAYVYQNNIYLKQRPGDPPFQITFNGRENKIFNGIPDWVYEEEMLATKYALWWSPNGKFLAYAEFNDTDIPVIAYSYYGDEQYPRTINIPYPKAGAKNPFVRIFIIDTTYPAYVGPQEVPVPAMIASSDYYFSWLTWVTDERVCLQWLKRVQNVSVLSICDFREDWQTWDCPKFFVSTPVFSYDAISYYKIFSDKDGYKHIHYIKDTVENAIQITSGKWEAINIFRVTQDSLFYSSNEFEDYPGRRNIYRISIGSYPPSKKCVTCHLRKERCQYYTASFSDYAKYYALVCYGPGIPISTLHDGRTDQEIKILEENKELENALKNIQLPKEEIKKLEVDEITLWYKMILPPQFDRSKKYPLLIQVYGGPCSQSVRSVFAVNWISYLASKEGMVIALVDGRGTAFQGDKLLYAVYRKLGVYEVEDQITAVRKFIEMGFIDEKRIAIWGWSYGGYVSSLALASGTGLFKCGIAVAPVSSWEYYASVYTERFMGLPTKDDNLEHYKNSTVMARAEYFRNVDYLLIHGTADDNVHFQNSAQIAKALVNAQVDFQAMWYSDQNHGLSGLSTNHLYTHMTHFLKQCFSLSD

hFAP Binding assay k(off) (hFAP (M39-A757)): k(off) = 0.000046 1/s^3
hFAP Binding assay k(on) (hFAP (M39-A757)): k(on) = 4900000 M^−1s^−1
IC50 (FAP Cyno Plasma): 0.4 nM
Structure (SMILES): N#C[C@@H]1CSCN1C(=O)CNC(=O)c1ccnc2ccc(N3CCOCC3)cc12 [(R)—N-(2-(4-Cyanothiazolidin-3-yl)-2-oxoethyl)-6-morpholinoquinoline-4-carboxamide]
